Measured values from patent publication US20080249103A1, “Sirtuin polymorphisms and methods of use thereof” (Sirtris Pharmaceuticals, Inc., priority 2006, published 2008).
Like-named read-outs stand apart in the source and are kept apart here.

How the values were obtained:
[1] = tested on: diet induced obese (DIO) mouse; test: Diet Induced Obesity (DIO) mouse model; assay type: in vivo, C57BL/6 mice; conditions: for plasma insulin: SRT1933 100 mg/kg, rosiglitazone 5 mg/kg once daily oral
Procedure: The vehicle used was 2% HPMC −0.2% DOSS. Individual mouse body weights were measured twice weekly. Every 2 weeks throughout the study, mice from each group were bled via the tail vein for determination of blood glucose and blood plasma insulin. After 1, 3 and 5 weeks of dosing, a fasted blood glucose measure was taken and after 5 weeks of treatment an IPGTT was conducted on all mice from each of the groups. After 9 weeks of treatment, an ITT was conducted and a rectal body temperature was taken on all mice from each of the groups. Statistical analysis was completed using the JMP program (Version 6). Data were analyzed by a one way ANOVA with comparison to control using a Dunnett's Test. A p value <0.05 indicated a significant difference between groups.

[2] = Plasma exposure after oral gavage in mice; assay type: in vivo, C57BL/6 mice; conditions: 100 mg/kg once daily by oral gavage, each day
Procedure: The following example describes the in vivo effects of a novel SIRT1 activator. The compound was administered via oral gavage at the doses indicated in FIG. 2a in […] male mice, 18-22 grams (Wilmington, Mass. Charles River Labs), 3 mice per group and blood plasma was collected at 5, 30, 120 and 360 minute time points. The compound was administered in 2% HPMC+0.2% DOSS. Mice were sacrificed at proper time points using CO2 overdose (place in CO2 chamber 40 seconds before time point). Blood was collected in microtainer blood tubes with Lithium Heparin and plasma separator and frozen plasma was sent to Charles River Labs (CRL) for analysis. To determine oral bioavalability, the compound was administered into the tail vein at 0.1, 0.3 and 1.0 mg/kg doses in C57BL/6 male mice, 18-22 grams (Wilmington, Mass. Charles River Labs), 3 mice per group and blood plasma was collected at 5, 30, 120 and 360 minute time points. Compounds were administered in 10% ethanol/ 40% Polyethylene glycol/50% H2O for IV studies. Mice were sacrificed at proper time points using CO2 overdose (place in CO2 chamber 40 seconds before time point). Blood was collected and analyzed as described above.

[3] = tested on: diet induced obese (DIO) mouse; test: Diet Induced Obesity (DIO) mouse model; assay type: in vivo, C57BL/6 mice; conditions: DIO mice
Human SIRT1 = target: T1, Human SIRT1 (Homo sapiens, UniProt Q96EB6); test: SIRT1 mass spectrometry deacetylase assay; assay type: biochemical
T1 construct: hexa-histidine (N); made in house; host or cells: E. coli BL21(DE3)Star
T1 sequence (Q96EB6 1-747): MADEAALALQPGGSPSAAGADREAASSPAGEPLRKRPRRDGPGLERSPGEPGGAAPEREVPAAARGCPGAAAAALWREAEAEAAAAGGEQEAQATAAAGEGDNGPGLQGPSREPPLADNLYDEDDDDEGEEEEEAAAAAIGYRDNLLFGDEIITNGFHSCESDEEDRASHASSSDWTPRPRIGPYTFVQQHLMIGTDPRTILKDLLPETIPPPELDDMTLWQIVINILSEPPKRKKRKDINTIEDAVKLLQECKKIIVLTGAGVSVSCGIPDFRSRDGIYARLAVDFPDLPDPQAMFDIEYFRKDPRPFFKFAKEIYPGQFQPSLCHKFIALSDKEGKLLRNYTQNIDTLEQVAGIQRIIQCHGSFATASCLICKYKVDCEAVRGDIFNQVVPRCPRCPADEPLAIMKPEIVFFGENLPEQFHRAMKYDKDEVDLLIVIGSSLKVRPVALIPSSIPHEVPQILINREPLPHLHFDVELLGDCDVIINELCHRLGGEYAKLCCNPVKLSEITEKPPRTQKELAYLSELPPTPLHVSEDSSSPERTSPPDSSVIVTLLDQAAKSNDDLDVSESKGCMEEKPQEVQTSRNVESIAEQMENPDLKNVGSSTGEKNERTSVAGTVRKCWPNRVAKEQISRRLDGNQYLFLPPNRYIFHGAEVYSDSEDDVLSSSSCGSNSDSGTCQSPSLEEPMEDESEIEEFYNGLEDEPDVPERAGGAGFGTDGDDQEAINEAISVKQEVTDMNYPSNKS
Excerpt: The following example describes methods for the identification and characterization of Sirt1 activators. Human SIRT1 is expressed from the pSIRT1FL vector which places expression under the control of the T7 promoter. The protein was expressed in E. coli BL21(DE3)Star as an N-terminal fusion to a hexa-histidine affinity tag. The expressed protein was purified by Ni^2+-chelate chromatography. The eluted protein was then purified by size exclusion chromatography followed by ion exchange. The resulting protein was typically >95% pure as assessed by SDS-PAGE analysis. The mass spectrometry based assay utilizes a peptide having 20 amino acid residues as follows: Ac-Glu-Glu-Lys(Biotin)-[…]Ac)-Nle-Ser-Thr-Glu-Gly-Lys(5TMR)-Glu-Glu-NH2 (SEQ ID NO:2) wherein K(Ac) is an acetylated lysine residue and Nle is a norleucine. The peptide is labeled with the fluorophore 5TMR (excitation 540 nm/emission 580 nm) at the C-terminus for use in the FP assay described above. The sequence of the peptide substrate is based on p53 with several modifications.
The mass spectrometry assay was conducted as follows: 0.5 μM peptide substrate and 120 μM βNAD^+ was incubated with 10 nM SIRT1 for 25 minutes at 25° C. in a reaction buffer (50 mM Tris-acetate pH 8, 137 mM NaCl, 2.7 mM KCl, 1 mM MgCl2, 5 mM DTT, 0.05% BSA). Test compounds were added to the reaction or vehicle control, DMSO. After the incubation with SIRT1, 10% formic acid was added to stop the reaction. Determination of the mass of the substrate peptide allows for precise determination of the degree of acetylation (i.e. starting material) as compared to deacetylated peptide (product).
The activity of an exemplary compound against SIRT1 enzyme was profiled using a mass spectrometry readout. In this assay the conversion of acetylated peptide substrate to deacetylated peptide product is tracked by monitoring the change in mass ([…]) upon loss of the acetyl group. […]

[4] = tested on: citrate synthase activity (mitochondrial capacity); test: Citrate synthase activity in tissues of treated DIO mice; assay type: in vivo, C57BL/6 mice
Procedure: Citrate synthase (CS) activity in skeletal muscle (gastrocnemius) and white adipose tissue (epididymal) was determined after 11 weeks of treatment using the method described by Srere (Citrate synthase, Methods Enzymol. 1969, 13: 3-5) and Moyes et al. (Moyes CD, Mathieu-Costello 0A, Tsuchiya N, Filbum C, and Hansford RG. Mitochondrial biogenesis during cellular differentiation. Am. J. Physiol. 1997, 272 (Cell Physiol. 41): C1345-C1351.
Citrate Synthase is an enzyme of the Krebs cycle (also called […], TCA, or citric acid) cycle whose maximal activity (capacity) reflects mitochondrial oxidative capacity of the sample (Holloszy et al. 1970, Williams et al. 1986, Hood et al. 1989). […] Irrespective of this latter remark, changes in citrate synthase activity over time in a given individual reflect changes in tissue mitochondrial oxidative capacity. The five mice best representing the mean fasting blood glucose level of each group (DIO Vehicle and DIO SRT1933) were selected for this analysis. The tissues were lyzed in lx Extraction Buffer (20 mM N-2-hydroxyethylpiperazine-N′-2-2ethanesulfonic acid (HEPES), pH 7.2, 0.1% Triton X-100 and 1 mM EDTA with a polytron tissue homogenizer (OMNI International GLH) for 30 seconds at maximum speed (setting 6) on ice. A low-speed (13,000 rpm, microfuge) centrifugation step was then used to pellet big cell debris. The supernatant was used to assess citrate synthase activity. The samples are freeze-thawed 2 times to break the mitochondrial membrane and allow access to citrate synthase. Sample protein concentrations were determined according to the supplier's instructions, with Bio-Rad Protein Assay Dye Reagent Concentrate (cat#500-0006, […]) with Protein Standard I, bovine gamma globulin (cat#500-0005, […]) as standard. The citrate synthase activity assay was performed in a final total volume of 300 μl with 100 μg of protein per sample, measured in triplicate.
Citrate synthase catalyzes the reaction between acetyl coenzyme A (acetyl CoA) and oxaloacetic acid (OAA) to form citric acid. […]

| Compound | plasma insulin ([1]; DIO mice) | duration of exposure above EC1.5 [2] | nonfasting blood glucose levels ([1]; DIO mice, 100 mg/kg once daily oral, by week 2, maintained over 10 week period) | insulin sensitivity relative to vehicle assessed by ITT ([1]; DIO mice, ITT after 9 weeks of treatment) | fasting blood glucose levels ([1]; DIO mice, once daily oral dosing) | body temperature ([1]; SRT1933 treated groups (FIG. 2f)) | lowering of core body temperature ([1]; both DIO mice and normal chow fed mice) | effect on insulin levels ([1]; mice fed a normal chow diet, over the course of the study) | glucose tolerance in an OGTT relative to vehicle [3] | glucose excursion in OGTT (AUC) ([3]; after 5 weeks of treatment, SRT1933 100 mg/kg, rosiglitazone 5 mg/kg once daily oral) | Emax (Human SIRT1; at the highest doses of compound tested, read-out: maximum activation) | EC1.5 (Human SIRT1; read-out: EC1.5 (concentration of compound required to increase enzyme activity by 50%), mass spectrometry readout, 10 nM SIRT1, 0.5 μM peptide substrate, 120 μM βNAD+) | EC1.5 (Human SIRT1; read-out: EC1.5, as quoted in legend of FIG. 2a) | increase in citrate synthase activity ([4]; gastrocnemius muscle, DIO mice, after 11 weeks of treatment) | citrate synthase activity in adipose tissue ([4]; n=5, after 11 weeks (FIG. 2g)) | mitochondrial capacity (citrate synthase activity) in skeletal muscle ([4]; n=5, after 11 weeks (FIG. 2g)) |
| --- | --- | --- | --- | --- | --- | --- | --- | --- | --- | --- | --- | --- | --- | --- | --- | --- |
| CN(CCOc1ccc(CC2SC(=O)NC2=O)cc1)c1ccccn1 (centres unmarked) [rosiglitazone, reference compound] | 0.9 ± 0.1 ng/mL |  |  |  |  |  |  |  |  |  |  |  |  |  |  |  |
| O=C(Nc1ccccc1-c1cn2c(CN3CCNCC3)csc2n1)c1cnc2ccccc2n1 [SRT1933] | 2.1 ± 0.1 ng/mL | at least 16 hours | normalized | improvement in insulin sensitivity | normalized | decreased | ~1 °C | did not have a significant effect | improved glucose tolerance | 462 ± 25 mg·h/dL | > 900% | 160 nM | 440 nM | 15% | trend | significant increase |
